Molecular target: T1, PPARγ (peroxisome proliferator-activated receptor γ) (Homo sapiens, UniProt P37231)
T1 construct: gene PPARG; PPARγ-LBD
T1 sequence (P37231 235-505 limits assumed): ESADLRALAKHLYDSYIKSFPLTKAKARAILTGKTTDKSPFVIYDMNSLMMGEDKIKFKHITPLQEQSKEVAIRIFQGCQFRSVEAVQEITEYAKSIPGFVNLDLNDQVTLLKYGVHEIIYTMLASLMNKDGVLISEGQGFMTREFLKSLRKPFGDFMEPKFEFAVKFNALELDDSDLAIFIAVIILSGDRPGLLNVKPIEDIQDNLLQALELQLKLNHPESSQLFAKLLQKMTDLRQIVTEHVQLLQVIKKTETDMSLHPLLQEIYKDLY
Assay: LanthaScreen TR-FRET PPARγ competitive binding assay; supported by PPARγ reporter gene activation in HepG2 cells

## O=C(NCc1ccco1)c1ccc(OCc2ccc(C(F)(F)F)cc2)cc1 [GVS-12]
  Ki: 320 nM
